From US4169197A, “6-Deoxyneamines aminoglycoside compounds” (The Upjohn Company, priority 1978, dated 1979) come the findings set out here.

Common to all, as to format: cell-based
One assay concerns E. coli UC 45. Briefly: standard microplate test in BHI Agar. As to conditions: Escherichia coli, UC45, 37°, 20 hours, Table III, read-out: Minimum Inhibitory Concentration. Here is the method: (§1) The compounds VII, XI, XVβ, XVα and XVI were tested in a standard microplate test in BHI (Brain Heart Infusion) Agar at a concentration of 1 mg./ml. and dilutions thereof at 37° incubation temperature. The end points are read out 20 hours. BHI Agar is supplied by Difco Laboratories, Detroit, Mich.

A further assay has as its system K. pneumoniae UC 58. Briefly: standard microplate test in BHI Agar. The conditions noted are these: Klebsiella pneumoniae. The method, then:
as §1

The test system of a further assay is P. mirabilis UC 6671. Briefly: standard microplate test in BHI Agar. The conditions noted are these: Proteus mirabilis, UC6671, 20 h. The method, then:
as §1

A further assay relates to P. morganii UC 3186. Briefly: standard microplate test in BHI Agar. As to conditions: Morganella morganii. The method, then:
as §1

The subject of another assay is P. rettgeri UC 339. Briefly: standard microplate test in BHI Agar. As to conditions: Providencia rettgeri. The method, then: as §1
For assay [1], the system named is P. vulgaris UC 93. Description: standard microplate test in BHI Agar. The conditions noted are these: Proteus vulgaris, UC93, 20 h. Here is the method:
as §1

The subject of assay [2] is Ps. aeruginosa UC 95. Briefly: standard microplate test in BHI Agar. The conditions noted are these: Pseudomonas aeruginosa. Here is the method: as §1
In another assay the test system is S. aureus UC 76. Description: standard microplate test in BHI Agar. As to conditions: Staphylococcus aureus. The method, then:
as §1

The test system of a further assay is S. faecalis UC 694. Description: standard microplate test in BHI Agar. As to conditions: Enterococcus faecalis. The method, then:
as §1

A further assay concerns S. flexneri UC 143. Description: standard microplate test in BHI Agar. As to conditions: Shigella flexneri, UC143, 37°, 20 hours. The method, then:
as §1

A further assay concerns S. marcescens UC 131. Briefly: standard microplate test in BHI Agar. As to conditions: Serratia marcescens, UC131, 20 h. The method, then:
as §1

For another assay, the system named is S. pneumoniae I UC 41. Description: standard microplate test in BHI Agar. The conditions noted are these: Streptococcus pneumoniae, UC41, 20 h. Here is the method: as §1
For the next assay, the system named is S. pyogenes UC 152. Description: standard microplate test in BHI Agar. The conditions noted are these: Streptococcus pyogenes. Here is the method: as §1
In assay [3] the test system is S. schottmuelleri UC 126. Briefly: standard microplate test in BHI Agar. The conditions noted are these: 37°, 20 hours. Here is the method:
as §1

Another assay deals with S. typhi UC 215. Description: standard microplate test in BHI Agar. The conditions noted are these: Salmonella enterica, 20 h. The method, then: as §1
For another assay, the system named is B. cereus UC 3145. Description: standard disc plate assay, zones of inhibition. The conditions noted are these: Bacillus cereus, UC3145, 12.5 mm paper discs, Table I, read-out: Zones of Inhibition. An excerpt: (§2) The compounds of formulas (V, VII, IX, XI, XIV, XVI, and XIX) are active as antibacterials and can be used in various environments to erradicate or control susceptible microorganisms. Tables I and II set forth the in vitro antibacterial test results for representative compounds of the present invention. The results were obtained with a standard disc plate assay using 12.5 mm paper discs.

A further assay concerns B. subtilis UC 564. Description: standard disc plate assay, zones of inhibition. As to conditions: Bacillus subtilis, UC564, 12.5 mm paper discs, Table I, read-out: Zones of Inhibition.
Excerpt: as §2

A further assay relates to E. coli UC 51. Briefly: standard disc plate assay, zones of inhibition. As to conditions: Escherichia coli, UC51, 12.5 mm paper discs, Table I, read-out: Zones of Inhibition.
Excerpt: as §2

The subject of another assay is K. pneumoniae UC 57. Briefly: standard disc plate assay, zones of inhibition. The conditions noted are these: Klebsiella pneumoniae, UC57, 12.5 mm paper discs, Table I, read-out: Zones of Inhibition.
Excerpt: as §2

Assay [4] concerns P. vulgaris UC 93. Description: standard disc plate assay, zones of inhibition. The conditions noted are these: Proteus vulgaris, UC93, 12.5 mm paper discs, Table I, read-out: Zones of Inhibition.
Excerpt: as §2

Assay [5] concerns Ps. aeruginosa UC 95. Description: standard disc plate assay, zones of inhibition. As to conditions: Pseudomonas aeruginosa, UC95; 1 mg/ml; 12.5 mm paper discs; Table I; read-out: Zones of Inhibition.
Excerpt: as §2

A further assay relates to S. aureus UC 80. Briefly: standard disc plate assay, zones of inhibition. As to conditions: Staphylococcus aureus, UC80, 12.5 mm paper discs, Table I, read-out: Zones of Inhibition.
Excerpt: as §2

The test system of the next assay is S. gallinarum UC 265. Description: standard disc plate assay, zones of inhibition. The conditions noted are these: Salmonella enterica, 12.5 mm paper discs, Table I, read-out: Zones of Inhibition.
Excerpt: as §2

Another assay concerns S. lutea UC 130. Briefly: standard disc plate assay, zones of inhibition. The conditions noted are these: Micrococcus luteus, UC130; 1 mg/ml; 12.5 mm paper discs; Table I; read-out: Zones of Inhibition.
Excerpt: as §2

The test system of assay [6] is S. schottmuelleri UC 126. Briefly: standard disc plate assay, zones of inhibition. The conditions noted are these: 12.5 mm paper discs, Table I.
Excerpt: as §2

A further assay has as its system E. coli UC 311. Description: standard microplate test in BHI Agar. The conditions noted are these: Escherichia coli, UC311, 20 h, read-out: Minimal Inhibitory Concentration. The method, then:
as §1

The mark [7] stands for this setting: read-out: Minimum Inhibitory Concentration.
Where [8] appears, read: Table III, read-out: Minimum Inhibitory Concentration.
[9] abbreviates: read-out: Minimal Inhibitory Concentration.
Where [10] appears, read: Table IV, read-out: Minimal Inhibitory Concentration.

Molecules are shown by their SMILES. Values after ≈ are worked out from the molar mass of the structure shown. Like-named read-outs stand apart in the source and are kept apart here.

For the molecule `NC[C@H]1O[C@H](O[C@H]2[C@H](O)C[C@H](N)C[C@@H]2N)[C@H](N)[C@@H](O)[C@@H]1O` [6-deoxyneamine (XI), 6-deoxyneamine], the MIC was 31.2 µg/mL (≈ 102 µM) with E. coli UC 45; 7.8 µg/mL (≈ 25.5 µM) in the assay on K. pneumoniae UC 58 (UC58, 20 h, read-out: Minimum Inhibitory Concentration); 62.5 µg/mL (≈ 204 µM) in the assay on P. mirabilis UC 6671 (setting [7]); 62.5 µg/mL (≈ 204 µM) with P. morganii UC 3186 (UC3186, 20 h, read-out: Minimum Inhibitory Concentration); 250 µg/mL (≈ 816 µM) in the assay with P. rettgeri UC 339 (UC339, 20 h, read-out: Minimum Inhibitory Concentration); 31.2 µg/mL (≈ 102 µM) with P. vulgaris UC 93 [1] (setting [7]). For the same molecule, the MIC in the assay on Ps. aeruginosa UC 95 [2] (UC95, 20 h, read-out: Minimum Inhibitory Concentration) is over 500 µg/mL; in the assay with S. aureus UC 76 (UC76, BHI Agar, 37°, 20 hours, Table III, read-out: Minimum Inhibitory Concentration), 3.9 µg/mL (≈ 12.7 µM); with S. faecalis UC 694 (UC694, 20 h, read-out: Minimum Inhibitory Concentration), over 500 µg/mL; with S. flexneri UC 143 (setting [8]) it was 62.5 µg/mL (≈ 204 µM); in the assay on S. marcescens UC 131 (setting [7]), 250 µg/mL (≈ 816 µM); in the assay with S. pneumoniae I UC 41 (setting [7]), 62.5 µg/mL (≈ 204 µM). Moreover, the MIC with S. pyogenes UC 152 (UC152, 20 h, read-out: Minimum Inhibitory Concentration) is 15.6 µg/mL (≈ 50.9 µM); in the assay with S. schottmuelleri UC 126 [3] (setting [8]) it was 31.2 µg/mL (≈ 102 µM); with S. typhi UC 215 (setting [7]), 31.2 µg/mL (≈ 102 µM).

Take `NC[C@H]1O[C@H](O[C@@H]2[C@@H](N)C[C@@H](N)C[C@H]2O[C@@H]2O[C@H](CO)[C@@H](O)[C@H]2O)[C@H](N)[C@@H](O)[C@@H]1O` [Compound XVβ, O-2,6-diamino-2,6-dideoxy-α-D-glucopyranosyl (1→4)-O-[β-D-ribofuranosyl(1→5)]-2,6-dideoxy-D-streptamine]: the zone of inhibition at 100 µg/mL in the assay on B. cereus UC 3145 (0.1 mg/ml) came to 17 mm; with B. subtilis UC 564 (0.1 mg/ml) it was 31 mm; in the assay on E. coli UC 51 (0.1 mg/ml), 20 mm; in the assay on K. pneumoniae UC 57 (0.1 mg/ml), 28 mm; in the assay with P. vulgaris UC 93 [4] (0.1 mg/ml), 18 mm; with S. aureus UC 80 (0.1 mg/ml) it was 19 mm. The zone of inhibition at 100 µg/mL in the assay with S. gallinarum UC 265 (0.1 mg/ml) came out at 21 mm; in the assay with S. schottmuelleri UC 126 [6] (0.1 mg/ml) it was 16 mm. Further, the zone of inhibition at 1000 µg/mL came to 26 mm in the assay with B. cereus UC 3145 (1 mg/ml); 39 mm with B. subtilis UC 564 (1 mg/ml); 27 mm in the assay with E. coli UC 51 (1 mg/ml); 36 mm in the assay on K. pneumoniae UC 57 (1 mg/ml); 27 mm in the assay on P. vulgaris UC 93 [4] (1 mg/ml); 15 mm in the assay on Ps. aeruginosa UC 95 [5]. Moreover, the zone of inhibition at 1000 µg/mL with S. aureus UC 80 (1 mg/ml) was 27 mm; in the assay on S. gallinarum UC 265 (1 mg/ml), 29 mm; with S. lutea UC 130 it was 19 mm; in the assay on S. schottmuelleri UC 126 [6] (1 mg/ml), 24 mm. Further, the MIC is 31.2 µg/mL (≈ 71.2 µM) in the assay on E. coli UC 311; 2 µg/mL (≈ 4.56 µM) in the assay with K. pneumoniae UC 58 (UC58, BHI Agar, 37°, 20 hours, Table IV, read-out: Minimal Inhibitory Concentration); 125 µg/mL (≈ 285 µM) in the assay with P. mirabilis UC 6671 (setting [9]); 7.8 µg/mL (≈ 17.8 µM) with P. morganii UC 3186 (UC3186, BHI Agar, 37°, 20 hours, Table IV, read-out: Minimal Inhibitory Concentration); over 500 µg/mL in the assay with P. rettgeri UC 339 (UC339, BHI Agar, 37°, 20 hours, Table IV, read-out: Minimal Inhibitory Concentration); 31.2 µg/mL (≈ 71.2 µM) in the assay with P. vulgaris UC 93 [1] (setting [9]). Further, the MIC was over 500 µg/mL in the assay on Ps. aeruginosa UC 95 [2] (UC95, BHI Agar, 37°, 20 hours, Table IV, read-out: Minimal Inhibitory Concentration); 31.2 µg/mL (≈ 71.2 µM) in the assay with S. aureus UC 76 (UC76, 20 h, read-out: Minimal Inhibitory Concentration); 500 µg/mL (≈ 1140 µM) in the assay on S. faecalis UC 694 (UC694, BHI Agar, 37°, 20 hours, Table IV, read-out: Minimal Inhibitory Concentration); 31.2 µg/mL (≈ 71.2 µM) with S. flexneri UC 143 (setting [10]); 62.5 µg/mL (≈ 143 µM) with S. marcescens UC 131 (setting [9]); 15.6 µg/mL (≈ 35.6 µM) in the assay with S. pneumoniae I UC 41 (setting [9]). The MIC with S. pyogenes UC 152 (UC152, BHI Agar, 37°, 20 hours, Table IV, read-out: Minimal Inhibitory Concentration) amounted to 3.9 µg/mL (≈ 8.89 µM); in the assay on S. schottmuelleri UC 126 [3] (setting [10]), 7.8 µg/mL (≈ 17.8 µM); in the assay on S. typhi UC 215 (setting [9]) it was 15.6 µg/mL (≈ 35.6 µM).
